{"source": "patent US5798381A", "about": "“Biologically active bistramides, process for their production and their applications in therapy” (Institut Francais de Recherche Scientifique pour le …, priority 1993, dated 1998)", "key": {"mice": {"tested_on": "mice", "test": "Acute toxicity (LD50), intravenous injection in mice", "type": "in vivo", "conditions": "statement in words", "method": "The LD50 of these bistramides is in fact of the order of 1.7 mg/kg (measured in mice, after injection of the product by intravenous route as a single dose).\nThe \"LD50 \" of the products of the invention has been measured for mice after injection of the products by intravenous route."}, "[1]": {"tested_on": "NSCLC solid tumours (xenograft)", "type": "in vivo, nude mouse", "method": "The anti-tumoural activity of the products of the invention was studied against solid tumours of NSCLC type grafted onto a nude mouse (D. Riou, C. Roussakis, J. F. Biard, J. F. Verbist: \"Comparative study of antitumor activity of bistramides A, D and K against non-small cell bronchopulmonary carcinoma\", Anticancer Research, 1993, 13, 2321-2334). Each mouse received 0.2 ml of a cell solution obtained by the mechanical dispersion of about 1 g of excised mouse tumour in 4.8 ml of a sterile saline solution. The sub-cutaneous grafted tumours were measured over their long length L and their short length 1. The tumoural volume was evaluated according to the formula Vt=L×1^2 /2. The tumoural growth on day d was calculated by the formula Vtd /Vtd0 for each mouse, Vtd0 being the tumoural volume at the start of treatment.\nThe curve \"------.circle-solid.------ \" relates to the control experiment, the curves \"--- .diamond-solid.---\", \"-- .quadrature.--\" and \"-- .box-solid.--\" to experiments with 10, 20 and 5 mg/kg of bistramide D respectively and the curve \"----*----\" to an experiment with 10 mg/kg of bistramide K. Each point represents the average tumoural growth for 6 mice.\nIn these experiments, bistramide K is injected at the rate of 10 mg/kg by intraperitoneal route for 16 days and bistramide D at the rate of 5 mg/kg by intraperitoneal route every day for 16 days; at 10 mg/kg by intravenous route on days 1, 5, 9, 14, and at 20 mg/kg by intravenous route on days 1, 5, 9, 14."}, "HT 29": {"tested_on": "HT 29", "test": "Cytotoxicity, 50% inhibition of cell growth, HT 29", "type": "cell-based", "conditions": "Homo sapiens", "method": "(§1) The cytoxicity results are recorded hereafter as the IC50 in μg/ml (concentration corresponding to a 50% inhibition of cell growth) on 6 tumoural lines namely KB, P388, P388/dox (resistant to doxorubicin), B16 and H429 and NSCLC-N6, which are human cells of non-small cell bronchopulmonary carcinoma type.\n(§2) The determinations were carried out according to the protocol given in Cancer Chemother. Pharmacol. (1991) 28:283-292 by Roussakis et al."}, "KB": {"tested_on": "KB", "test": "Cytotoxicity, 50% inhibition of cell growth, KB", "type": "cell-based", "conditions": "Homo sapiens, read-out: IC50 (50% inhibition of cell growth)", "method": "as §1, §2"}, "NSCLC.N6-L16": {"tested_on": "NSCLC.N6-L16", "test": "Cytotoxicity, 50% inhibition of cell growth, NSCLC-N6", "type": "cell-based", "conditions": "Homo sapiens", "method": "as §1, §2"}, "B16": {"tested_on": "B16", "test": "Cytotoxicity, 50% inhibition of cell growth, B16", "type": "cell-based", "method": "as §1, §2"}, "P388 (p388s)": {"tested_on": "P388 (p388s)", "test": "Cytotoxicity, 50% inhibition of cell growth, P388", "type": "cell-based", "conditions": "Mus musculus, P388/S, read-out: IC50 (50% inhibition of cell growth)", "method": "as §1, §2"}, "P388/dox (p388r)": {"tested_on": "P388/dox (p388r)", "test": "Cytotoxicity, 50% inhibition of cell growth, P388/dox (resistant to doxorubicin)", "type": "cell-based", "conditions": "Mus musculus", "method": "as §1, §2"}}, "note": "“Also recorded” adds a separate entry of the source. Read-outs that look alike come from different tables or passages of the source."}
{"smiles": "CCCC(=O)CC1CCC(C)C(CC(=O)NCC(O)C(C)C(=O)NCCCC2OC3(CCCC(CCC(C)C=C(C)C(C)O)O3)CCC2C)O1", "note": "(stereo not drawn) [Bistramide B]", "values": [{"measurement": "toxicity in vivo", "setting": "mice", "value": "high toxicity"}]}
{"smiles": "C/C=C/C(=O)CC1CCC(C)C(CC(=O)NCC(O)C(C)C(=O)NCCCC2OC3(CCCC(CCC(C)/C=C(\\C)C(C)O)O3)CCC2C)O1", "note": "(stereo not drawn) [Bistramide A]", "values": [{"measurement": "toxicity under the conditions of the xenograft test", "setting": "[1]; mouse, in vivo", "value": "too toxic for an anti-tumoural effect to be observed"}, {"measurement": "toxicity in vivo", "setting": "mice", "value": "high toxicity; also recorded: toxic"}, {"measurement": "toxicity in vivo", "setting": "mice; listed as A bistramide", "value": "acute toxicity"}]}
{"smiles": "C/C=C/C(O)C/C=C/CC(C)C(O)CC(=O)NCC(O)C(C)C(=O)NCCCC1OC2(CCCC(CCC(C)/C=C(\\C)C(C)O)O2)CCC1C", "note": "(stereo not drawn) [Bistramide K]", "values": [{"measurement": "tumoural growth relative to controls (100%)", "setting": "[1]; 10 mg/kg, IP, for 16 days, at the end of 30 days", "value": 49, "unit": "%"}, {"measurement": "IC50", "setting": "HT 29; HT 29, read-out: IC50 (50% inhibition of cell growth)", "value": 5.6, "unit": "µg/mL"}, {"measurement": "IC50", "setting": "KB", "value": "> 10", "unit": "µg/mL"}, {"measurement": "IC50", "setting": "NSCLC.N6-L16; NSCLC.N6-L16, read-out: IC50 (50% inhibition of cell growth)", "value": 3.23, "unit": "µg/mL"}, {"measurement": "IC50", "setting": "B16; Mus musculus, B16; read-out: IC50 (50% inhibition of cell growth)", "value": 1.9, "unit": "µg/mL"}, {"measurement": "IC50", "setting": "P388 (p388s); p388s", "value": 0.57, "unit": "µg/mL"}, {"measurement": "IC50", "setting": "P388/dox (p388r)", "value": "> 10", "unit": "µg/mL"}]}
{"smiles": "C/C=C/C(=O)CC1CCC(C)C(CC(=O)NCC(O)C(C)C(=O)NCCCC2OC3(CCCC(CCC(C)C=C(C)C(C)=O)O3)CCC2C)O1", "note": "(stereo not drawn) [Bistramide C]", "values": [{"measurement": "toxicity in vivo", "setting": "mice", "value": "high toxicity"}]}
{"smiles": "C/C=C\\C(=O)CC1CCC(C)C(CC(=O)NCC(O)C(C)C(=O)NCCCC2OC3(CCCC(CCC(C)/C=C(\\C)C(C)O)O3)CCC2C)O1", "note": "(stereo not drawn) [Bistramide L]", "values": [{"measurement": "IC50", "setting": "HT 29; HT-29, read-out: IC50 (50% inhibition of cell growth)", "value": 0.29, "unit": "µg/mL"}, {"measurement": "IC50", "setting": "KB", "value": 0.72, "unit": "µg/mL"}, {"measurement": "IC50", "setting": "NSCLC.N6-L16; NSCLC-N6, read-out: IC50 (50% inhibition of cell growth)", "value": 0.12, "unit": "µg/mL"}, {"measurement": "IC50", "setting": "B16; Mus musculus, B16, read-out: IC50 (50% inhibition of cell growth)", "value": 2.4, "unit": "µg/mL"}, {"measurement": "IC50", "setting": "P388 (p388s)", "value": 0.48, "unit": "µg/mL"}, {"measurement": "IC50", "setting": "P388/dox (p388r)", "value": 0.12, "unit": "µg/mL"}]}
